We go through nine molecules from patent US5444042A, “Method of treatment of neurodegeneration with calpain inhibitors” (Cortex Pharmaceuticals, priority 1994, dated 1995).

Some results are limits rather than exact numbers.

In one series the target is T1, Papain (Carica papaya, UniProt P00784).
T1 sequence (P00784 134-345): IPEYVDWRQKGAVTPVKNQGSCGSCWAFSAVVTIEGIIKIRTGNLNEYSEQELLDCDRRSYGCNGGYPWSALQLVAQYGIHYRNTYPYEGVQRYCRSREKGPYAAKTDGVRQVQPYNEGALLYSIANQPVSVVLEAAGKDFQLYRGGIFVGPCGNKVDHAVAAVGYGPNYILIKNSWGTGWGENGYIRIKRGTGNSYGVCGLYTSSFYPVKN
As to the kind of experiment: Papain inhibition, Ki by Dixon plot (Table PKC1). In kind it is biochemical. The settings on record: 0.05M Tris-HCl pH 7.5, 2 mM EDTA, 5 mM cysteine, 1% DMSO, 25° C., substrate Nα-Benzoyl-Arg-AMC; read-out: Ki P (Papain). As for the experimental part: (§1) Various concentrations of inhibitors in dimethylsulfoxide (DMSO) were added to the assay mixture, which contained buffer and substrate. The reaction was started by the addition of the enzyme and the hydrolysis rates were followed spectrophotometrically or fluorimetrically. 88 mM KH2 PO4, 12 mM Na2 HPO4, 1.33 mM EDTA, 2.7 mM cysteine, pH 6.0 was used as a buffer for cathepsin B; and 20 mM Hepes, 10 mM CaCl2, 10 mM β-mercaptoethanol, pH 7.2 buffer was utilized for calpain I and calpain II.
(§2) All peptide thioester hydrolysis rates were measured with assay mixtures containing 4,4'-dithiodipyridine [e324=19800 M-1 cm-1; Grasetti & Murray, Arch. Biochem. Biophys. 119, pp 41-49 (1967)]. Papain was assayed with Bz-Arg-AMC or Bz-Arg-NA [Kanaoka et al., Chem. Pharm. Bull. 25, 3126-3128 (1977)], and the AMC (7-amino-4-methylcoumarin) release was followed fluorimetrically (excitation at 380 nm, and emission at 460 nm). Cathepsin B was assayed with Z-Arg-Arg-AFC [Barrett and Kirschke, Methods Enzymol. 80, 535-561 (1981)], and the AFC (7-amino-4-trifluoromethylcoumarin) release was followed fluorimetrically (excitation at 400 nm, and emission at 505 nm). Calpain I from human erythrocytes and calpain II from rabbit were assayed using Suc-Leu-Tyr-AMC [Sasaki et al., J. Biol. Chem. 259, 12489-12494 (1984), hereby incorporated by reference], and the AMC (7-amino-4-methylcoumarin) release was followed fluorimetrically (excitation at 380 nm, and emission at 460 nm). Enzymatic hydrolysis rates were measured at various substrate and inhibitor concentrations, and Ki values were determined by Dixon plot.
The inhibition constants for papain shown in Table PKC1 were measured in 0.05M Tris-HCl, pH 7.5 buffer, containing 2 mM EDTA, 5 mM cysteine (freshly prepared), 1% DMSO, at 25° C., using N^α -Benzoyl-Arg-AMC as a substrate, except that those values of inhibition constants for papain marked with an "e" in Table PKC1 were measured in 50 mM Tris-HCl, pH 7.5 buffer, containing 20 mM EDTA, 5 mM cysteine, 9% DMSO, at 25° C., using N^α -Benzoyl-Arg-NA as a substrate.

Series [1] addresses T2, Cathepsin B (Bos taurus, UniProt P07688). As to the kind of experiment: Cathepsin B inhibition, Z-Arg-Arg-AFC (Table PKC1). In kind it is biochemical. The settings on record: pH 6.0 phosphate buffer, substrate Z-Arg-Arg-AFC; read-out: Ki CB (Cathepsin B). As for the experimental part:
as §1, §2

The subject of a further series is Calpain within platelets. As to the kind of experiment: Platelet membrane permeation assay, spectrin proteolysis (Examples 4A, 4B). The format is cell-based, rat. The settings on record: for inhibition of Calpain within platelets / platelet assay, semi-quantitative: 100 μM; for inhibition of Calpain within platelets: A23187 1 μM; for IC50: concentration at which 50% of the Calpain activation present in controls occurred. As to the method: Platelets were isolated by a modification of the method of Ferrell and Martin, J Biol. Chem., 264:20723-20729 (1989), the disclosure of which is hereby incorporated by reference. Blood (15-20 ml) was drawn from male Sprague-Dawley rats into 100 mM EDTA-citrate containing 10 units heparin, and centrifuged 30 minutes at 1600 rpm at room temperature. The plasma was resuspended in 15 ml buffer 1 (136 mM NaCl, 2.7 mM KCl, 0.42 mM NaH2 PO4, 12 mM NaHCO3, 2 mM MgCl2, 2 mg/ml BSA (Sigma), 5.6 mM glucose, 22 mM Na3 Citrate pH 6.5) and platelets were isolated at 2200 rpm at room temperature of 25 minutes. Platelets were resuspended to 10^7 cells/ml in buffer 2 (136 mM NaCl, 2.7 mM KCl, 0.42 NaH2 PO4, 12 mM NaHCO3, 2 mM MgCl, 1 mg/ml BSA, 5.6 mM glucose, 20 mM HEPES pH 7.4) and allowed to "rest" for a minimum of 10 minutes at room temperature before use.
Platelets were incubated for 5 minutes in the presence of inhibitor. In order to provide sufficient intracellular calcium to activate Calpain, the calcium ionophore A23187 was added to a final concentration of 1 μM. After a further 5 minute incubation, the platelets were harvested by centrifugation (1 min 10,000×g) and resuspended in 10% sodium dodecyl sulfate, 10 mM Tris pH=8.0, 5% β-mercaptoethanol, 0.02% bromophenol blue, and heated to 95° C. for 5 min. Samples were subjected to SDS-PAGE on 6% mini gels and transferred to nitrocellulose (Schleicher and Schuell BAS3) for 2 hours at 100 mA/gel in an LKB Novablot. Filters were blocked for 10 minutes in 0.25% gelatin, 1% BSA, 0.25% Triton X100, 0.9% NaCl, 10 mM Tris-Cl pH 7.5, incubated overnight in the same solution containing antibody to rat spectrin, washed 3×10 minutes with 10 mM Tris-Cl pH 7.5, 0.5 % Triton X100, incubated 4 hours in wash buffer plus alkaline phosphatase conjugated goat anti-rabbit antibody (Biorad), and washed as above. Filters were developed using the Biorad AP conjugate substrate kit. Spectrin immunoreactivity on the filters was quantitated by densitometry.

Another series deals with T3, Calpain I (Homo sapiens, UniProt P07384).
T3 sequence (P07384 1-714): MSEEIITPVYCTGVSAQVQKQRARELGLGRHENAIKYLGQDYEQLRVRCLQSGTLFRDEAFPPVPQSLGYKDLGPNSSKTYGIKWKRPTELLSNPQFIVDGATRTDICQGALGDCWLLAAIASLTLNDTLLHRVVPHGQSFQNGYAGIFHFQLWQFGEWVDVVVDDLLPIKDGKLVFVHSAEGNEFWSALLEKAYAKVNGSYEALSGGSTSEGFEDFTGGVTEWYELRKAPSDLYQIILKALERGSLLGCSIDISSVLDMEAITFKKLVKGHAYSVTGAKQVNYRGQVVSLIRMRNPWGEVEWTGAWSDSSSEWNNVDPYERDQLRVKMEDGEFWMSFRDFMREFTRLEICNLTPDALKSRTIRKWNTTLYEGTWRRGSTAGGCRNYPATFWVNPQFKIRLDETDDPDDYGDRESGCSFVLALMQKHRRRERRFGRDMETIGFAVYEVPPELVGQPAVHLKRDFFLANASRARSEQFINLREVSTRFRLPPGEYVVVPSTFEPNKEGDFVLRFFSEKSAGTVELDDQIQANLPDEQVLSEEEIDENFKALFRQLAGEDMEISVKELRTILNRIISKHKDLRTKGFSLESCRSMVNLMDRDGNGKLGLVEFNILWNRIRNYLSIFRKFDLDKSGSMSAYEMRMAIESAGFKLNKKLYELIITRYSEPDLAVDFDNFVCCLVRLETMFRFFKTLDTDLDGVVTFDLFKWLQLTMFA
T3 sequence (P04632 1-268 partner): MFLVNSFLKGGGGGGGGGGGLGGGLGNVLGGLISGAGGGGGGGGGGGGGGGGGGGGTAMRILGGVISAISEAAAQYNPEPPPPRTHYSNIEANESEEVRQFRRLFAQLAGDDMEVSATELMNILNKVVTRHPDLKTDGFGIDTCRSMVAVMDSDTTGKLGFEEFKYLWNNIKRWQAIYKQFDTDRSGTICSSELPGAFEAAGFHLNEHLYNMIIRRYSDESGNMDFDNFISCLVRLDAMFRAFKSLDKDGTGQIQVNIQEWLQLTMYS
The experiment in a line: Calpain I KI (Table 1B(ii)). In kind it is biochemical. The settings on record: Table 1B(ii). From the text: (§3) We tested the ability of an additional group of Peptide Keto-Compounds to inhibit several proteases in order to evaluate their specificity for Calpain.

The next series has as its target Calpain II. As to the kind of experiment: Calpain II KI (Table 1B(ii)). The format is biochemical.
Excerpt: as §3

Series [2] addresses T2, Cathepsin B. The experiment in a line: Cathepsin B KI (Table 1B(ii)). In kind it is biochemical. The settings on record: read-out: KI CathB.
Excerpt: as §3

Another series deals with Chym (Bos taurus, UniProt P00766). As to the kind of experiment: Chym KI (Table 1B(ii)). The format is biochemical.
Excerpt: as §3

For another series, the target named is PP Elastase (Sus scrofa, UniProt P00772). As to the kind of experiment: PP Elastase KI (Table 1B(ii)). In kind it is biochemical.
PP Elastase, sequence (P00772 27-266): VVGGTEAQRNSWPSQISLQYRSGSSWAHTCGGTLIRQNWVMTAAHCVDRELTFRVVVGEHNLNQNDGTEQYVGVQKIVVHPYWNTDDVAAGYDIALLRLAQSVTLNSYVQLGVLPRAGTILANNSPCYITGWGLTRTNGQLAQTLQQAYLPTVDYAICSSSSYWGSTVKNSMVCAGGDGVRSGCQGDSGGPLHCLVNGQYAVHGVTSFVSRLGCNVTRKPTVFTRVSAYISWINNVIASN
Excerpt: as §3

The next series is described as follows: Stability in plasma. The settings on record: unit assumed. The format is in vitro ADME. From the text:
We determined the haft-life of several Peptide Keto-Compounds in both plasma and liver homogenates.

Turning to `CCC(NC(=O)[C@H](C)NC(=O)[C@H](C)NC(=O)OCc1ccccc1)C(=O)C(=O)OCc1ccccc1` (mixture of isomers) [Z-Ala-Ala-DL-Abu-COOBzl, Z-Ala-Ala-DL-Abu-CO2 Bzl], the Ki (usually a measure of affinity in units of concentration, obtained from inhibition or displacement) came to 30 µM at Papain and 60 µM at Cathepsin B [1]. Besides, in the series with Calpain within platelets, the “inhibition of Calpain within platelets” value is recorded as “significant inhibition”.
Turning to `CCCC(NC(=O)C(C)NC(=O)C(C)NC(=O)OCc1ccccc1)C(=O)C(=O)OCC` (racemic) [Z-Ala-Ala-DL-Nva-COOEt, Z-Ala-Ala-DL-Nva-CO2 Et], the Ki at Papain came out at 30 µM; at Cathepsin B [1], 0.1 µM.
As for `CCOC(=O)C(=O)C(C)NC(=O)[C@@H]1CCCN1C(=O)[C@H](C)NC(=O)OCc1ccccc1` (mixture of isomers) [Z-Ala-Pro-DL-Ala-COOEt, Z-Ala-Pro-DL-Ala-CO2 Et], the Ki came out at 26 µM at Papain and 66 µM on Cathepsin B [1].
The corresponding values for `CCOC(=O)C(=O)C(C)NC(=O)C(Cc1ccccc1)NC(=O)OCc1ccccc1` (racemic) [Z-Phe-DL-Ala-COOEt] are 3.6 µM and 3.2 µM.
In the case of `CCOC(=O)C(=O)C(Cc1ccccc1)NC(=O)C(Cc1ccccc1)NC(=O)OCc1ccccc1` (racemic) [Z-Phe-DL-Phe-COOEt], the inhibition constant (Ki) on Papain was found to be 1.8 µM; at Cathepsin B [1], 0.1 µM.
On to `CCOC(=O)C(=O)C(CC)NC(=O)C(CC(C)C)NC(=O)C(CC(C)C)NS(=O)(=O)c1ccc2ccccc2c1` (stereo not drawn) [2-NapSO2 -Leu-Leu-Abu-COOEt], for which the Ki on Calpain I came out at 16 µM; on Calpain II it was 1.4 µM; on Cathepsin B [2], 25 µM; at Chym, 35 µM; at PP Elastase it was 47 µM. The same molecule registered a t1/2 plasma in the series “Stability in plasma” above 60 min. The “inhibition of Calpain within platelets” value in the series on Calpain within platelets was “significant inhibition”. 100 µM corresponded to half-maximal inhibition in the series on Calpain within platelets (IC50).
Take `CCOC(=O)C(=O)[C@H](CC)NC(=O)[C@H](CC(C)C)NC(=O)[C@H](CC(C)C)NS(=O)(=O)c1ccc(C)cc1` [Tos-Leu-Leu-Abu-COOEt]: the Ki at Calpain I was 33 µM; on Cathepsin B [2] it was 69 µM; on Chym it was 25 µM; on PP Elastase, 28 µM. Further, in “Stability in plasma”, the t1/2 plasma came to 30 min. It took 30 µM to reach half-maximal inhibition in the series with Calpain within platelets (IC50).
On to `CC[C@H](NC(=O)[C@H](CC(C)C)NC(=O)OCc1ccccc1)C(=O)C(=O)OCc1ccccc1` [Z-Leu-Abu-COOBz, Z-Leu-Abu-CO2 Bzl], for which the Ki on Calpain I was 9.5 µM; at Calpain II, 0.47 µM; at Cathepsin B [2], 4 µM; on Chym, 40 µM; on PP Elastase, above 100 µM. Moreover, the “inhibition of Calpain within platelets” value with Calpain within platelets is reported as “significant inhibition”. Further, the “platelet assay, semi-quantitative” value in the series with Calpain within platelets is listed as “++”.
In the case of `CCCCOC(=O)C(=O)[C@H](Cc1ccccc1)NC(=O)[C@H](CC(C)C)NC(=O)OCc1ccccc1` [Z-Leu-Phe-COOnBu, Z-Leu-Phe-CO2 Bu], the Ki on Calpain I is 5 µM; at Calpain II, 1.1 µM; on Cathepsin B [2], 15 µM; at Chym, 0.15 µM; on PP Elastase, above 100 µM. Also, in “Stability in plasma”, the t1/2 plasma worked out at 7.7 min. For the same molecule, the “inhibition of Calpain within platelets” value in the series with Calpain within platelets was “significant inhibition”. In addition, the “platelet assay, semi-quantitative” value in the series with Calpain within platelets is “+++”.
